Source: US11807685B2, “Anti-CD47 antibody and uses thereof” (THE UAB RESEARCH FOUNDATION, priority 2021, dated 2023)

What was measured:
MDA-MB-468 cells [1] = assay: In vitro cytotoxicity assay (CellTiter-Glo); assay type: cell-based, human; conditions: for cell viability: 3-day assay
Description: (§1) The 96-well plates were seeded with MDA-MB-231 and MDA-MB-468 cells at VCD of 5×10^5 cells/mL in 100 μL of DMEM/F12 complete medium with triplication. Then 100 μL of cell growth medium containing ADC or free drug was added to reach final concentrations of 0-200 nM and incubated in CO2 incubator for 72 hrs. The cytotoxicity of ADC or free drug was measured with CellTiter-Glo Luminescent Cell Viability Assay (Promega, Madison, […]) and reported as the relative viability using untreated cells as control. The IC50 value was calculated using ED50V10 Excel add-in.

MDA-MB-231 cells [2] = assay: In vitro cytotoxicity assay (CellTiter-Glo); assay type: cell-based, human; conditions: for cell viability: 3-day assay
Description: as §1

CD47 = assay: Western blotting of CD47 in GC treated MDA-MB-231 cells; assay type: cell-based, human; conditions: 10 nM for 3 weeks
Description: The non-reducing SDS-PAGE was run by loading 2 μg of mAb or ADC to Bolt™ 4 to 12%, Bis-Tris Mini Protein Gel (1.0 mm) to validate the purity and integrality of the produced anti-CD47 mAb and ADC. In Western blotting analysis, 30 μg of total cell lysis protein was loaded to gel and electro-transferred to PVDF membrane using PowerEase™ Touch 350 W Power Supply (Fisher). After blocking, the blotted membrane was probed using primary rabbit anti-mouse antibody and HRP-conjugated secondary anti-rabbit antibody (Abcam, Cambridge, UK). The blotted membrane was treated with Luminata Forte Western HRP substrate (Millipore, Boston, MA). The SDS-PAGE and Western blots were imaged with MyECL imager and quantified using ImageJ software.
The surface expression of CD47 in TNBC cell lines was analyzed using mass spectrometry (MS, Thermo Orbitrap Velos Pro) at the University of Alabama at Birmingham (UAB) MS and proteomics core facility. […] Furthermore, to confirm the CD47 upregulation by chemotherapy, we treated MDA-MB-231 cells with 10 nM GC for 3 weeks.

[3] = test system: MDA-MB-231-FLuc xenograft; assay: IVIS imaging of in vivo TNBC targeting; parameters: species or system mouse
Source text: (§2) Human TNBC xenograft mouse model was generated by subcutaneously (s.c.) injecting 3×10^6 of MDA-MB-231-FLuc cells into the 6-week-old NSG (NOD scid gamma) female mice (Jackson Labs, Bar Harbor, ME). This immunocompromised model was used to evaluate the tumor targeting of our mAb and anti-TNBC efficacy of the constructed ADC. The immunocompetent mouse model was generated by injecting 1×10^6 of mouse TNBC 4T1-FLuc cells into the BALB/cJ female mice, which was used to analyze the tumoral immunity. Mice developed tumors within 2 weeks post cells injection.
When TNBC tumor volume reached approximately 100 mm^3, 50 μg of Cyanine 5.5 (Cy5.5, Lumiprobe, Hunt Valley, MD) labelled anti-CD47 mAb or 1.5 nmole Cy5.5 (control, similar amount as labelled Cy5.5 in mAb) was intravenously (i.v.) administrated via tail vein for TNBC-targeting analysis. Mice were imaged at 24 hrs post mAb injection under IVIS Lumina Series III (PerkinElmer, Waltham, MA) with wavelength of 660 nm/710 nm (excitation/emission) and exposure time of 10 seconds. Inhalation anesthesia was induced by delivering 3.5-4.5% isoflurane in oxygen to mice via respiratory system (nose cone), then maintained with a concentration of 1-2% during imaging procedure.

4T1 cells = assay: Flow cytometry surface binding; conditions: mouse TNBC 4T1, mAb-AF647, flow cytometry
Description: (§3) The flow cytometry was conducted to analyze anti-CD47 mAb's binding rate to TNBC cells and quantify the immune cells using a BD LSRII flow cytometer (BD Biosciences, San Jose, CA). In surface binding analysis, the produced CD47 mAb was labelled with an Alexa Fluor™ 647 labelling kit (Life Technologies, part of Fisher) and used to stain MDA-MB-468, MDA-MB-231, 4T1, and 184B5 cells with 5 μg of mAb-AF647 per million of cells at room temperature for 30 mins (Ou, J.; et al. PLOS ONE 2018; Si, Y.; et al. Pharmaceutics 2020, 12:1079-1090; Ou, J.; et al. J Biol Eng 2019, 13:34). The harvested lymph nodes were dissociated with Tissue Dissociation/Single Cell Isolation Kit (101 Bio LLC, Sunnyvale, CA) following manufacturing procedure, and stained with Cy5 anti-CD69 antibody, APC anti-CD11c antibody, or PE/Cy7 anti-CD4 antibody (BioLegend, San Diego, CA) for flow cytometry analysis.

[4] = test system: normal breast 184B5 cells; assay: Flow cytometry surface binding; conditions: normal 184B5 cells, mAb-AF647, flow cytometry
Description: as §3

MDA-MB-468 cells [5] = assay: Flow cytometry surface binding; parameters: species or system human; conditions: MDA-MB-468, mAb-AF647, flow cytometry
Description: as §3

MDA-MB-231 cells [6] = assay: Flow cytometry surface binding; parameters: species or system human; conditions: MDA-MB-231, mAb-AF647, flow cytometry
Description: as §3

MDA-MB-468 cells [7] = assay: Live-cell confocal imaging of internalization; assay type: cell-based, human; conditions: AF647 labelled mAb
Source text: Confocal microscopy imaging was collected to validate the targeting and internalization of anti-CD47 mAb in TNBC cells following our reported protocol (Si, Y.; et al. Cancer Gene Therapy. Cancer Gene Therapy 2020; Si, Y.; et al. Eng Life Sci 2021, 21:37-44; Ou, J.; et al. PLOS ONE 2018; Si, Y.; et al. Pharmaceutics 2020, 12:1079-1090; Si, Y.; et al. Biotechnol J 2019). Briefly, the MDA-MB-468 cells were stained with BacMam GFP Transduction Control, which expresses eGFP protein in cytoplasm, NucBlue Live ReadyProbes to stain nucleus, and AF647 labelled anti-CD47 mAb to target TNBC cells via surface receptor. The live-cell images were collected using a Nikon A1R-HD25 confocal microscope with a high-speed resonance scanner (Nikon USA, Melville, NY).

lymph node immune cells = assay: Flow cytometry analysis of immune cells in lymph nodes, 4T1 xenograft BALB/cJ model; assay type: in vivo, mouse; conditions: 8 mg/kg, BALB/cJ 4T1 xenograft
Description: as §3, §2
The general immune response to anti-CD47 mAb was also tested using whole blood analysis and flow cytometry analysis of lymph nodes in the 4T1 xenograft BALB/cJ model (n=4). The mice carrying 50 mm^3 xenograft were treated with 8 mg/kg anti-CD47 mAb. After two weeks, blood was collected through cardiac puncture. […] The lymph nodes were also harvested and dissociated for flow cytometry analysis of fresh cells. […] In the future, a full investigation of immune function in tumor microenvironment is needed in order to delineate the possible anti-TNBC immunity of this mAb.

[8] = Whole blood analysis (HemaVet 950FS) in 4T1 xenograft BALB/cJ model; assay type: in vivo, mouse; conditions: 8 mg/kg, after two weeks, BALB/cJ 4T1 xenograft
Source text: The blood samples were extracted by cardiac puncture for whole blood analysis using HemaVet 950FS (Drew Scientific, Miami Lakes, FL). The leukocytes (white blood cell, neutrophil, lymphocyte, monocyte, eosnophils), erythrocytes (red blood cell, hemoglobin, mean corpuscular hemoglobin), and thrombocytes (platelet) were titrated to analyze the general peripheral immune response.
as §2
The general immune response to anti-CD47 mAb was also tested using whole blood analysis and flow cytometry analysis of lymph nodes in the 4T1 xenograft BALB/cJ model (n=4). The mice carrying 50 mm^3 xenograft were treated with 8 mg/kg anti-CD47 mAb. After two weeks, blood was collected through cardiac puncture. […] The lymph nodes were also harvested and dissociated for flow cytometry analysis of fresh cells. […]

[9] = Toxicity in the efficacy study (body weight, H&E staining of organs); assay type: in vivo, mouse; conditions: 8 and 24 mg/kg ADC, 8 mg/kg mAb, PBS; Q4Dx4
Description: […] […] Tumor volume was measured using an electronic caliper and calculated as “width×width×length/2” in mm. Body weight was measured every other day. The in vivo treatment study was ended after 21-day treatment which was determined based on our previous ADC treatment animal study (Si, Y.; et al. Eng Life Sci 2021, 21:37-44; Ou, J.; et al. PLoS One 2018, 13:e0206246; Xu, N.; et al. Biochemical Engineering Journal 2019, 145:177-185). At the end of the experiment, mice were euthanized and the TNBC tumors were collected to measure the wet weight.
The IHC and H&E staining were performed. In IHC staining, the paraffin-embedded slides were immersed in xylene followed by 3% H2O2 in PBS, and blocked with 3% normal goat serum. The rabbit anti-mouse CD11b mAb (Cell Signaling, Danvers, MA) and HRP-conjugated goat anti-rabbit IgG mAb were used to stain the macrophage in tumor tissue. After color development with DAB chromogen, the slides were counterstained with hematoxylin and dehydrated in absolute ethanol. In H&E staining, the embedded normal organ slides were dewaxed, hydrated with 100%-0% ETOH, immersed in hematoxylin solution, and rinsed with tap water and eosin. After equilibration in ethanol, the stained slides were dipped in Xylene and mounted with cytoseal Xyl.

[10] = test system: MDA-MB-231-FLuc xenograft; assay: In vivo anti-TNBC efficacy study; parameters: species or system mouse; unit not given here; conditions: 8 mg/kg i.v. Q4Dx4, terminal tumor; no significant difference to PBS group
Source text: as §2
The TNBC MDA-MB-231-FLuc xenograft mice were treated with 16 mg/kg-BW of GC by intraperitoneal (IP) injection when tumor volume reached ˜50 mm^3. […] Tumor volume was measured using an electronic caliper and calculated as “width×width×length/2” in mm. Body weight was measured every other day. The in vivo treatment study was ended after 21-day treatment which was determined based on our previous ADC treatment animal study (Si, Y.; et al. Eng Life Sci 2021, 21:37-44; Ou, J.; et al. PLoS One 2018, 13:e0206246; Xu, N.; et al. Biochemical Engineering Journal 2019, 145:177-185). At the end of the experiment, mice were euthanized and the TNBC tumors were collected to measure the wet weight.

COc1cc2cc(c1Cl)N(C)C(=O)C[C@H](OC(=O)[C@H](C)N(C)C(=O)CCS)[C@]1(C)O[C@H]1[C@H](C)[C@@H]1C[C@@](O)(NC(=O)O1)[C@H](OC)/C=C/C=C(\C)C2 [DM1, mertansine]
cell viability (MDA-MB-468 cells [1]; MDA-MB-468, 25 nM): 56%
cell viability (MDA-MB-468 cells [1]; MDA-MB-468, 50 nM): 37%
cell viability (MDA-MB-468 cells [1]; MDA-MB-468, 100 nM): 32%
cell viability (MDA-MB-468 cells [1]; MDA-MB-468, 200 nM): 34%
IC50 (MDA-MB-468 cells [1]; MDA-MB-468, 72 hrs): 21 nM
cell viability (MDA-MB-231 cells [2]; MDA-MB-231, 25 nM): 94%
cell viability (MDA-MB-231 cells [2]; MDA-MB-231, 50 nM): 72%
cell viability (MDA-MB-231 cells [2]; MDA-MB-231, 100 nM): 53%
cell viability (MDA-MB-231 cells [2]; MDA-MB-231, 200 nM): 54%
IC50 (MDA-MB-231 cells [2]; MDA-MB-231, 72 hrs): 47 nM

Nc1ccn([C@@H]2O[C@H](CO)[C@@H](O)C2(F)F)c(=O)n1 [GC, gemcitabine]
CD47 expression (CD47): increased

Cyanine 5.5 [Cy5.5]
distribution in major organs (brain, heart, lung, spleen, kidney, liver) ([3]; 24 hrs post i.v. injection, IVIS): distributed in multiple locations such as brain, liver and kidney

B1: anti-CD47 mAb: anti-CD47 mAb (IgG2b/kappa) targeting the extracellular domain (Gln19-Glu141) of CD47; heavy chain SEQ ID NO:1, light chain SEQ ID NO:2 (antibody)
heavy: MLLGLKWVFFVVFYQGVHCEVQLVESGGGLVQPKGSLKLSCAASGFTFNTYAMNWVRQAPGKGLEWIARIRSKSNNYATYYADSMKDRFTISRDDSQSMLYLQMNNLKTEDTAMYYCVRPAQGAMDYWGHGTSVTVSSSKTTPPSVYPLAPGCGDTTGSSVTLGCLVKGYFPESVTVTWNSGSLSSSVHTFPALLQSGLYTMSSSVTVPSSTWPSQTVTCSVAHPASSTTVDKKLEPSGPISTINPCPPCKECHKCPAPNLEGGPSVFIFPPNIKDVLMISLTPKVTCVVVDVSEDDPDVQISWFVNNVEVHTAQTQTHREDYNSTIRVVSTLPIQHQDWMSGKEFKCKVNNKDLPSPIERTISKIKGLVRAPQVYILPPPAEQLSRKDVSLTCLVVGFNPGDISVEWTSNGHTEENYKDTAPVLDSDGSYFIYSKLNMKTSKWEKTDSFSCNVRHEGLKNYYLKKSFSRTPGK
light: MVFTPQILGLMLFWISASRGDIVLTQSPATLSVTPGDSVSLSCRASQRISNNLHWYQQKSHESPRLLIKYSSQSISGIPSRFSGSGSGTDFTLSINSVETEDFGMYFCQQSNAWPYTFGGGTKLEIRRADAAPTVSIFPPSSEQLTSGGASVVCFLNNFYPKDINVKWKIDGSERQNGVLNSWTDQDSKDSTYSMSSTLTLTKDEYERHNSYTCEATHKTSTSPIVKSFNRNEC
surface binding (4T1 cells): 90.5%
surface binding [4]: 4.39%
surface binding (MDA-MB-468 cells [5]): 98.9%
surface binding (MDA-MB-231 cells [6]): 97.3%
time to targeting and accumulation in TNBC tumor post i.v. injection ([3]; mouse, in vivo, iv): ≤ 24 h
time to internalization and localization in cytoplasm after mixing (MDA-MB-468 cells [7]): ≤ 60 min
CD11c+ DC cells in lymph nodes (lymph node immune cells; PBS control 5.44%): 8.49%
CD69+ NK cells in lymph nodes (lymph node immune cells; PBS control 6.55%): 10.3%
CD4+ T cells in lymph nodes (lymph node immune cells; PBS control 63.8%): 68.3%
leukocytes, erythrocytes and thrombocytes counts vs PBS control group [8]: no obvious difference
overall body weight change among the four groups [9]: no obvious difference
tumor weight [10]: 307±76
